What was measured:
[1] = system: bicistronic HCV replicon (replicon RNA, GenBank Accession No. AJ242654); assay: HCV Replicon Assay; format: cell-based; settings: Hepatitis C virus, 72 h, read-out: Replicon IC50

Q: Which IC50 [1] does the source give for `COc1ccc2c(c1)c(C#N)c(-c1ncc(S(=O)(=O)N[C@@H](C)C3CC3)cn1)n2C1CCC1` [compound 570, 2-(3-cyano-1-cyclobutyl-5-methoxy-1H-indol-2-yl)-N-[(1S)-1-cyclopropylethyl]pyrimidine-5-sulfonamide] here?
A: 500 to 2000 nM

Q: And the melting point?
A: 182 to 183 °C

Q: For `N#Cc1c(-c2ncc(S(=O)(=O)NC(CF)CF)cn2)n(CC2CC2)c2ccc(Cl)cc12` [compound 221, 2-[5-chloro-3-cyano-1-(cyclopropylmethyl)-1H-indol-2-yl]-N-(1,3-difluoropropan-2-yl)pyrimidine-5-sulfonamide], which IC50 [1] is on record?
A: < 500 nM

Q: What about the melting point of the same molecule?
A: 245 to 250 °C

Q: With `COc1ccc2c(C#N)c(-c3ncc(S(=O)(=O)N[C@H](C)C(F)(F)F)cn3)n(C3CCC3)c2c1` [compound 183, 2-(3-cyano-1-cyclobutyl-6-methoxy-1H-indol-2-yl)-N-[(2R)-1,1,1-trifluoropropan-2-yl]pyrimidine-5-sulfonamide] as the molecule, how does the IC50 [1] read?
A: 500 to 2000 nM

Q: And the melting point?
A: 147 to 149 °C

Q: Which IC50 [1] does the source give for `C[C@H](NS(=O)(=O)c1ccc(-c2c(C#N)c3cc(F)ccc3n2C2CCCCC2)nc1)C1CC1` [compound 250, 6-(3-cyano-1-cyclohexyl-5-fluoro-1H-indol-2-yl)-N-[(1S)-1-cyclopropylethyl]pyridine-3-sulfonamide] here?
A: < 500 nM

Q: And the melting point?
A: 161 to 163 °C

Q: With `CCc1cc2c(cc1F)c(C#N)c(-c1ccc(S(=O)(=O)NC3(C(F)(F)F)CC3)cn1)n2C1CCC1` [compound 642, 6-(3-cyano-1-cyclobutyl-6-ethyl-5-fluoro-1H-indol-2-yl)-N-[1-(trifluoromethyl)cyclopropyl]pyridine-3-sulfonamide] as the molecule, how does the IC50 [1] read?
A: < 500 nM

Q: And the melting point?
A: 203 to 203.5 °C

Q: For `CC(C)(C)S(=O)(=O)Nc1ccc(-c2c(C#N)c3cc(F)c(C4CC4)cc3n2-c2ccccc2)cn1` [compound 1101, N-[5-(3-cyano-6-cyclopropyl-5-fluoro-1-phenyl-1H-indol-2-yl)pyridin-2-yl]-2-methylpropane-2-sulfonamide], which IC50 [1] is on record?
A: 500 to 2000 nM

Q: And the melting point?
A: 249 to 250 °C

Q: For `CCc1cc2c(cc1F)c(C#N)c(-c1ccc(S(=O)(=O)N[C@@H](C)C(F)(F)F)cn1)n2-c1ccc(F)c(Cl)c1` [compound 1062, 6-[1-(3-chloro-4-fluorophenyl)-3-cyano-6-ethyl-5-fluoro-1H-indol-2-yl]-N-[(2S)-1,1,1-trifluoropropan-2-yl]pyridine-3-sulfonamide], which IC50 [1] is on record?
A: < 500 nM

Q: What about the melting point of the same molecule?
A: 228 to 232 °C

Q: For `C[C@H](NS(=O)(=O)c1ccc(-c2c(C#N)c3ccc(CC(F)F)cc3n2C2CCC2)nc1)C(F)(F)F` [compound 384, 6-[3-cyano-1-cyclobutyl-6-(2,2-difluoroethyl)-1H-indol-2-yl]-N-[(2S)-1,1,1-trifluoropropan-2-yl]pyridine-3-sulfonamide], which IC50 [1] is on record?
A: < 500 nM

Q: And the melting point?
A: 172 to 174 °C

Q: For `Cc1cc2c(cc1F)c(C(N)=O)c(-c1ccc(S(=O)(=O)NC(C)(C)C(F)(F)F)cn1)n2C1CCCCC1` [compound 714, 1-cyclohexyl-5-fluoro-6-methyl-2-{5-[(1,1,1-trifluoro-2-methylpropan-2-yl)sulfamoyl]pyridin-2-yl}-1H-indole-3-carboxamide], which IC50 [1] is on record?
A: < 500 nM

Q: And the melting point?
A: 245 to 250 °C

Q: With `Cc1ccc2c(c1)c(C#N)c(-c1ccc(S(=O)(=O)N[C@@H](C)C3CC3)cn1)n2C1CCCCC1` [compound 606, 6-(3-cyano-1-cyclohexyl-5-methyl-1H-indol-2-yl)-N-[(1S)-1-cyclopropylethyl]pyridine-3-sulfonamide] as the molecule, how does the IC50 [1] read?
A: < 500 nM

Q: And the melting point?
A: 169 to 174 °C

Q: What does the source list for `N#Cc1c(-c2ccc(S(=O)(=O)NC(CF)CF)cn2)n(C2CCC2)c2cc(C(F)F)ccc12` [compound 331, 6-[3-cyano-1-cyclobutyl-6-(difluoromethyl)-1H-indol-2-yl]-N-(1,3-difluoropropan-2-yl)pyridine-3-sulfonamide]?
A: IC50 [1]: < 500 nM; melting point: 217 to 222 °C

Q: Which results are given for `CC(C)NS(=O)(=O)c1cnc(-c2c(C(N)=O)c3cc(Cl)ccc3n2C2CCC2)nc1` [compound 745, 5-chloro-1-cyclobutyl-2-[5-(propan-2-ylsulfamoyl)pyrimidin-2-yl]-1H-indole-3-carboxamide]?
A: IC50 [1]: < 500 nM; melting point: 245 to 247 °C

Q: Which results are given for `N#Cc1c(-c2ncc(S(=O)(=O)NC(CF)CF)cn2)n(C2CCCC2)c2ccc(F)cc12` [compound 240, 2-(3-cyano-1-cyclopentyl-5-fluoro-1H-indol-2-yl)-N-(1,3-difluoropropan-2-yl)pyrimidine-5-sulfonamide]?
A: IC50 [1]: < 500 nM; melting point: 201 to 206 °C

Q: What does the source list for `CCc1cc2c(cc1F)c(C(N)=O)c(-c1ccc(S(=O)(=O)NC3(C(F)(F)F)CC3)cn1)n2C1CCCC1` [compound 872, 1-cyclopentyl-6-ethyl-5-fluoro-2-(5-{[1-(trifluoromethyl)cyclopropyl]sulfamoyl}pyridin-2-yl)-1H-indole-3-carboxamide]?
A: IC50 [1]: < 500 nM; melting point: 196 to 197 °C

Q: With `CSc1ccc2c(C#N)c(-c3ncc(S(=O)(=O)NC(CF)CF)cn3)n(C3CCC3)c2c1` [compound 162, 2-[3-cyano-1-cyclobutyl-6-(methylsulfanyl)-1H-indol-2-yl]-N-(1,3-difluoropropan-2-yl)pyrimidine-5-sulfonamide] as the molecule, how does the IC50 [1] read?
A: < 500 nM

Q: And the melting point?
A: 199 to 201 °C

Q: With `CC(C)n1c(-c2ncc(S(=O)(=O)N[C@@H](C)C(F)(F)F)cn2)c(C#N)c2ccc(Cl)cc21` [compound 418, 2-[6-chloro-3-cyano-1-(propan-2-yl)-1H-indol-2-yl]-N-[(2S)-1,1,1-trifluoropropan-2-yl]pyrimidine-5-sulfonamide] as the molecule, how does the IC50 [1] read?
A: 500 to 2000 nM

Q: What about the melting point of the same molecule?
A: 241 to 248 °C

Q: Which IC50 [1] does the source give for `N#Cc1c(-c2ccc(S(=O)(=O)NC(CF)CF)cn2)n(C2CCC2)c2cc(OC(F)F)c(F)cc12` [compound 542, 6-[3-cyano-1-cyclobutyl-6-(difluoromethoxy)-5-fluoro-1H-indol-2-yl]-N-(1,3-difluoropropan-2-yl)pyridine-3-sulfonamide] here?
A: < 500 nM

Q: What about the melting point of the same molecule?
A: 160 to 164 °C

Q: With `Cc1cc2c(C#N)c(-c3ccc(S(=O)(=O)N[C@@H](C)C(F)(F)F)cn3)n(-c3ncccn3)c2cc1F` [compound 901, 6-[3-cyano-6-fluoro-5-methyl-1-(pyrimidin-2-yl)-1H-indol-2-yl]-N-[(2S)-1,1,1-trifluoropropan-2-yl]pyridine-3-sulfonamide] as the molecule, how does the IC50 [1] read?
A: < 500 nM

Q: What about the melting point of the same molecule?
A: 125 to 130 °C

Q: Which IC50 [1] does the source give for `Cc1ccc2c(c1)c(C#N)c(-c1ncc(S(=O)(=O)NC(C)C)cn1)n2C(C)C` [compound 565, 2-[3-cyano-5-methyl-1-(propan-2-yl)-1H-indol-2-yl]-N-(propan-2-yl)pyrimidine-5-sulfonamide] here?
A: < 500 nM

Q: What about the melting point of the same molecule?
A: 175 to 177 °C

Q: Which results are given for `N#Cc1c(-c2ncc(S(=O)(=O)NC(CF)CF)cn2)n(C2CCC2)c2ccc(F)cc12` [compound 452, 2-(3-cyano-1-cyclobutyl-5-fluoro-1H-indol-2-yl)-N-(1,3-difluoropropan-2-yl)pyrimidine-5-sulfonamide]?
A: IC50 [1]: < 500 nM; melting point: 175 to 180 °C

Q: Which results are given for `C[C@H](NS(=O)(=O)c1ccc(-c2c(C#N)c3ccc(CF)cc3n2C2CCC2)nc1)C(F)(F)F` [compound 362, 6-[3-cyano-1-cyclobutyl-6-(fluoromethyl)-1H-indol-2-yl]-N-[(2S)-1,1,1-trifluoropropan-2-yl]pyridine-3-sulfonamide]?
A: IC50 [1]: < 500 nM; melting point: 205 to 209 °C

Q: With `Cc1cc2c(cc1Cl)c(C(N)=O)c(-c1ccc(S(=O)(=O)N[C@H](C)C(F)(F)F)cn1)n2C1CCC1` [compound 735, 5-chloro-1-cyclobutyl-6-methyl-2-(5-{[(2R)-1,1,1-trifluoropropan-2-yl]sulfamoyl}pyridin-2-yl)-1H-indole-3-carboxamide] as the molecule, how does the IC50 [1] read?
A: < 500 nM

Q: What about the melting point of the same molecule?
A: 208 to 210 °C

Q: What does the source list for `C[C@H](NS(=O)(=O)c1cnc(-c2c(C#N)c3ccc(CC(F)F)cc3n2C2CCC2)nc1)C1CC1` [compound 592, 2-[3-cyano-1-cyclobutyl-6-(2,2-difluoroethyl)-1H-indol-2-yl]-N-[(1S)-1-cyclopropylethyl]pyrimidine-5-sulfonamide]?
A: IC50 [1]: < 500 nM; melting point: 168 to 175 °C

Q: With `CC(C)NS(=O)(=O)c1cnc(-c2c(C#N)c3cc(Cl)ccc3n2C2CCC2)nc1` [compound 114, 2-(5-chloro-3-cyano-1-cyclobutyl-1H-indol-2-yl)-N-(propan-2-yl)pyrimidine-5-sulfonamide] as the molecule, how does the IC50 [1] read?
A: < 500 nM

Q: And the melting point?
A: > 198 °C (dec.)

Q: Which IC50 [1] does the source give for `CCc1cc2c(cc1F)c(C#N)c(-c1ccc(S(=O)(=O)N[C@@H](C)C(F)(F)F)cn1)n2-c1cccc(F)n1` [compound 930, 6-[3-cyano-6-ethyl-5-fluoro-1-(6-fluoropyridin-2-yl)-1H-indol-2-yl]-N-[(2S)-1,1,1-trifluoropropan-2-yl]pyridine-3-sulfonamide] here?
A: < 500 nM

Q: And the melting point?
A: 205 to 211 °C

Q: What does the source list for `CC(C)c1ccc2c(C#N)c(-c3ccc(S(=O)(=O)NC(CF)CF)cn3)n(C3CCC3)c2c1` [compound 43, 6-[3-cyano-1-cyclobutyl-6-(propan-2-yl)-1H-indol-2-yl]-N-(1,3-difluoropropan-2-yl)pyridine-3-sulfonamide]?
A: IC50 [1]: < 500 nM; melting point: 135 to 140 °C

Q: With `Cc1ccc2c(C#N)c(-c3ncc(S(=O)(=O)NC(CF)CF)cn3)n(C3CCC3)c2c1` [compound 132, 2-(3-cyano-1-cyclobutyl-6-methyl-1H-indol-2-yl)-N-(1,3-difluoropropan-2-yl)pyrimidine-5-sulfonamide] as the molecule, how does the IC50 [1] read?
A: < 500 nM

Q: And the melting point?
A: 236 to 238 °C

Q: Which IC50 [1] does the source give for `C[C@H](NS(=O)(=O)c1ccc(-c2c(C#N)c3ccc(Cl)cc3n2C2CCCCC2)nc1)C(F)(F)F` [compound 515, 6-(6-chloro-3-cyano-1-cyclohexyl-1H-indol-2-yl)-N-[(2S)-1,1,1-trifluoropropan-2-yl]pyridine-3-sulfonamide] here?
A: < 500 nM

Q: What about the melting point of the same molecule?
A: 217 to 224 °C

Q: For `N#Cc1ccc2c(C#N)c(-c3ccc(S(=O)(=O)NC(CF)CF)cn3)n(C3CCCC3)c2c1` [compound 468, 6-(3,6-dicyano-1-cyclopentyl-1H-indol-2-yl)-N-(1,3-difluoropropan-2-yl)pyridine-3-sulfonamide], which IC50 [1] is on record?
A: < 500 nM

Q: What about the melting point of the same molecule?
A: 219 to 221 °C

From patent US8735414B2 (priority 2009, dated 2014)
